From patent US6924295B2, “Tetrahydroquinoline derivative compound and drug containing the compound as active ingredient” (Ono Pharmaceutical Co., Ltd., priority 2001, dated 2005)

Experiments:
human PPAR α = biological target: T1, human PPAR α (Homo sapiens, UniProt Q07869); assay: Luciferase assay using human PPAR α (PPAR α agonistic activity); type: cell-based; conditions: compound 10 μM; luciferase activity of carbacyclin (10 μM) defined as 1.0; CV-1 cells with Gal4-human PPAR α ligand binding domain chimera, 42 hours
T1 construct: expressed in transfected cells; host or cells: CV-1 cells
T1 sequence (Q07869 167-468): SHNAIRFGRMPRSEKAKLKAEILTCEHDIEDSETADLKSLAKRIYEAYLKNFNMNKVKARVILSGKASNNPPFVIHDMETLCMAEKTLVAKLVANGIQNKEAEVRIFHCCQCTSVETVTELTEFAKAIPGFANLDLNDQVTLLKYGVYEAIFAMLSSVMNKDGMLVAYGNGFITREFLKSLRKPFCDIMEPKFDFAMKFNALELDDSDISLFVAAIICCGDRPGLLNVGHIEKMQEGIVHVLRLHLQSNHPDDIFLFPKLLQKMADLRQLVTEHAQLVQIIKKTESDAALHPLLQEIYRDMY

human PPAR γ = biological target: T2, human PPAR γ (Homo sapiens, UniProt P37231); assay: Luciferase assay using human PPAR γ (PPAR γ agonistic activity); type: cell-based; conditions: compound 10 μM; luciferase activity of troglitazone (10 μM) defined as 1.0; CV-1 cells with Gal4-human PPAR γ ligand binding domain chimera, 42 hours
T2 construct: expressed in transfected cells; host or cells: CV-1 cells
T2 sequence (P37231 204-505): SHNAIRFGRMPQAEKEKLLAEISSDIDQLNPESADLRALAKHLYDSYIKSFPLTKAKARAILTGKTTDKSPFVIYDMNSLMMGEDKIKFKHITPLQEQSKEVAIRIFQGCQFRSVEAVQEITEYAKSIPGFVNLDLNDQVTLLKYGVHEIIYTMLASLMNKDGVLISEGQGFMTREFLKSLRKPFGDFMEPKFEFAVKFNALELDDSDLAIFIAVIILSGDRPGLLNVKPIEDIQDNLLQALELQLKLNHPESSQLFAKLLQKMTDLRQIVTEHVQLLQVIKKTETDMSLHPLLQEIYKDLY

Compound: Cc1ccc(-c2nc(CCOc3cccc4c3CCCN4CCC(=O)O)c(C)o2)cc1 [Example 2]
- Relative Activity to a positive control compound (carbacyclin = 1) (human PPAR α): 0.5
- Relative Activity to a positive control compound (troglitazone = 1) (human PPAR γ): 6.7
